Experimental data: paper PMC9298916, “The Discovery and Structure‐Activity Evaluation of (+)‐Floyocidin B and Synthetic Analogs” (Chemmedchem, 2021)
Values after ≈ are worked out from the molar mass of the structure shown. Like-named read-outs stand apart in the source and are kept apart here.

Assays:
C. albicans FH2173 = assay: Micro-broth dilution growth inhibition, C. albicans (ATP quantification); assay type: cell-based
THP1 cells = assay: Cytotoxicity on THP1 cells (CellTiterGlo); assay type: cell-based; details: THP1 cells; 40 h
Experimental: (§1) Cytotoxicity on THP1 and HepG2 cells
(§2) After 4 hours of HepG2 cell line (provided by ATCC) plating at 2.500 cells /well in 384-w plates, compounds were added to the cells. After an incubation at 37 °C for 40 h, the CellTiterGlo assay (provided by Promega) was performed.
(§3) Luminescence measurement is related to the cell viability. Compound activity is determined by using the control wells with no treatment as control (100% of growth). The assay was performed identically with THP1 cells. All incubations were […]

[1] = Cellular permeability assay utilizing Caco2 cell line; details: human; for Papp at 120 min, 10 µM: Caco-2, Caco‐2 permeability Papp +Elacridar, A2B in the presence of elacridar; for Papp A→B at 120 min, 10 µM: Caco-2, Caco‐2 permeability Papp A2B, A2B
Caco-2 cells = assay: as above; details: 10 µM, 120 min; for Caco‐2 permeability recovery +Elacridar / Caco‐2 permeability Papp +Elacridar: A2B in the presence of elacridar
HepG2 cells = assay: Cytotoxicity on HepG2 cells (CellTiterGlo); assay type: cell-based; details: 40 h
Experimental: as §1, §2, §3

physchem = assay type: physicochemical; details: for chromatographic logD: pH 7.4, Log D pH 7.4
Experimental: 2.4. Assay descriptions for the profiling of all four stereoisomers of (+)-floyocidin B and (−)-avicennone C,1 the avicennone C-floyocidin B hybrids 35, ent-35, 36 and ent-36 as well as the natural product (+)-floyocidin A.
Determination of logD 7.4
LogD values at pH 7.4 were determined by a standardized HPLC method derived from by Genieser et al.8 The calculation of the logD value for measured compounds is performed by comparison of the retention times with standard compounds of known distribution coefficients between 1 -octanol and water at pH 7.4. […]
8 Krass, J. D., Jastorff, B., and Genieser, H.-G. Anal. Chem. 1997, 69, 2575–2581. […]

[2] = Microsomal stability, human; assay type: in vitro ADME; details: 1 µM compound; for Microsomal stability CLint, Human / Microsomal stability t1/2, Human: human liver microsomes 0.5 mg/mL
Experimental: (§4) 2.4. Assay descriptions for the profiling of all four stereoisomers of (+)-floyocidin B and (−)-avicennone C,1 the avicennone C-floyocidin B hybrids 35, ent-35, 36 and ent-36 as well as the natural product (+)-floyocidin A. […]
(§5) Pooled liver microsomes are purchased. Microsomes are stored at –80 °C prior to use. Microsomes (final protein concentration 0.5 mg/mL), 0.1 M phosphate buffer pH 7.4, and test compound (final substrate concentration 1 µM; final DMSO concentration 0.25%) are preincubated at 37 °C prior to the addition of NADPH (final concentration 1 mM) to initiate the reaction. A minus cofactor control i ncubation is included for each compound tested where 0.1 M phosphate buffer pH 7.4 is added instead of NADPH. Two control compounds are included. All incubations are performed singularly for each test compound. Each compound is incubate d for 0, 5, 15, 30, and 45 min. The control is incubated for 45 min only. The reactions are stopped by transferring incubate into acetonitrile at the appropriat e time points, in a 1:3 ratio. The termination plates are centrifuged at 3,000 rpm for 20 min at 4 °C to precipitate the protein.
(§6) From a plot of ln peak area ratio (compound peak area/internal standard peak area) against time, the gradient of the line is determined. Subsequently, half -life and intrinsic clearance are calculated using the equations below:
(§7) Elimination rate constant (k) = (- gradient)
(§8) Intrinsic clearance (CL )(µL/min/mg protein) = V x 0.693 […]
(§9) where V = Incubation volume (µL)/Microsomal protein (mg)
(§10) Relevant control compounds are assessed, ensuring intrinsic clearance values fall within the specified limits (if available). […]

[3] = system: M. catarrhalis ATCC25238I; assay: Micro-broth dilution growth inhibition, M. catarrhalis; assay type: cell-based
[4] = Microsomal stability, mouse; assay type: in vitro ADME; details: for Microsomal stability CLint, Mouse / Microsomal stability t1/2, Mouse: mouse liver microsomes 0.5 mg/mL
Experimental: as §4, §5, §6, §7, §8, §9, §10

E. coli ATCC25922 = assay: Micro-broth dilution growth inhibition, E. coli (CAMH); assay type: cell-based; details: Escherichia coli, 18 h
S. aureus ATCC25923 = assay: Micro-broth dilution growth inhibition, S. aureus; assay type: cell-based; details: Staphylococcus aureus, 18 h
E. coli ATCC25922 MHC = assay: Micro-broth dilution growth inhibition, E. coli in CAMH with 44 mM sodium bicarbonate (MHC); assay type: cell-based; details: E. coli ATCC25922 MHC (CAMH + 44 mM sodium bicarbonate)
P. aeruginosa ATCC27853 = assay: Micro-broth dilution growth inhibition, P. aeruginosa; assay type: cell-based; details: Pseudomonas aeruginosa, 18 h
[5] = Candida albicans, FH2173, 48 h, read-out: MIC
[6] = Escherichia coli, ATCC25922, 18 h, read-out: MIC

Row | Structure (SMILES) | MIC (C. albicans FH2173; 48 h) [µg/mL] | Cytotoxicity TC50 THP1 (THP1 cells) [µM] | Caco‐2 permeability recovery +Elacridar (Caco-2 cells) [%] | Caco‐2 permeability recovery A2B (Caco-2 cells) [%] | Cytotoxicity TC50 HepG2 (HepG2 cells) [µM] | chromatographic logD (physchem) | Microsomal stability CLint, Human [2] [μL/min/mg protein] | Microsomal stability t1/2, Human [2] [min] | MIC [3] [µg/mL] | MIC (E. coli ATCC25922) [µg/mL] | MIC (C. albicans FH2173; [5]) [µg/mL] | MIC (S. aureus ATCC25923) [µg/mL] | MIC (E. coli ATCC25922 MHC; [6]) [µg/mL] | MIC (P. aeruginosa ATCC27853) [µg/mL] | Caco‐2 permeability Papp +Elacridar (Caco-2 cells) | Caco‐2 permeability Papp A2B (Caco-2 cells) | Log D pH 7.4 (physchem) | Microsomal stability CLint, Mouse ([4]; 1 µM compound) [μL/min/mg protein] | Microsomal stability t1/2, Mouse ([4]; 1 µM compound) [min] | other results
1 | CC(C)=CCC12OC1C(O)c1ccccc1C2=O (stereo not shown) [compound 37] | 128 (≈ 524 µM) | 27.2 | 80.9 | 74.8 | 30 | 2.82 | 54.6 | 25.4 | 128 (≈ 524 µM) |  |  |  |  |  |  |  |  |  |  | Papp at 120 min, 10 µM [1]: 27.9 ×10⁻⁶ cm/s; Papp A→B at 120 min, 10 µM [1]: 32.6 ×10⁻⁶ cm/s; microsomal CLint at 1 µM ([4]; mouse, microsomes, pH 7.4, Microsomal stability CLint): > 1500 µL/min/mg
2 | CCC/C=C/c1cc2c(cn1)[C@H](O)[C@H]1O[C@@]1(CC=C(C)C)C2=O [compound 27, (1aR,2S,7aR)‐2‐Hydroxy‐7 a‐(3‐methylbut‐2‐en‐1‐yl)‐5‐((E)‐pent‐1‐en‐1‐yl)‐1 a,7 a‐dihydrooxireno[2,3‐g]isoquinolin‐7(2H)‐one] |  | 10.6 | 38.5 | 42.1 | 10.7 | 4.14 |  |  |  | > 128 | > 128 | > 128 | > 128 | > 128 |  |  |  |  |  | Papp at 120 min, 10 µM [1]: 8.77 ×10⁻⁶ cm/s; Papp A→B at 120 min, 10 µM [1]: 11.7 ×10⁻⁶ cm/s; microsomal CLint at 1 µM ([2]; human, pooled liver microsomes, pH 7.4, human liver microsomes 0.5 mg/mL): 95.8 µL/min/mg; half-life at 1 µM ([2]; human, pooled liver microsomes, pH 7.4, human liver microsomes 0.5 mg/mL, read-out: Microsomal stability t1/2, Human): 14.5 min; microsomal CLint at 1 µM ([4]; mouse, pooled liver microsomes, pH 7.4, mouse liver microsomes 0.5 mg/mL, 1 µM compound, read-out: Microsomal stability CLint, Mouse): 1500 µL/min/mg; half-life at 1 µM ([4]; mouse, pooled liver microsomes, pH 7.4, mouse liver microsomes 0.5 mg/mL, 1 µM compound, read-out: Microsomal stability t1/2, Mouse): 0.924 min
3 | CC(C)=CCC12OC1C(O)c1ccccc1C2=O (stereo not drawn) [compound 2, (−)‐avicennone C, reference compound] | 128 (≈ 524 µM) | 30 | 83.4 | 86.7 | >30 |  | 150 | 9.26 | 64 (≈ 262 µM) |  |  |  |  |  | 393 10^−7 cm s^−1 | 407 10^−7 cm s^−1 | 2.86 |  |  | 
4 | CCCC=Cc1cc2c(cn1)C(O)C1OC1(CC=C(C)C)C2=O (stereo not drawn) [ent‐27] |  | 11.5 | 15.3 | 8.69 | 10.4 |  | 44.3 | 31.3 | 8 (≈ 25.5 µM) |  |  |  |  |  | 64.4 10^−7 cm s^−1 | 40.5 10^−7 cm s^−1 | 4.16 | 764 | 1.81 | Caco‐2 permeability recovery +Elacridar (Caco-2 cells; listed as ent-27): 15.3%; Caco‐2 permeability recovery A2B (Caco-2 cells; listed as ent-27): 8.69%
5 | CC(C)=CCC12OC1C(O)c1ccccc1C2=O (stereo not shown) [compound 38] |  | 30 | 132 | 127 | 9.49 |  | 76.0 | 18.2 |  | > 128 | > 128 | > 128 | > 128 | > 128 | 331 10^−7 cm s^−1 | 620 10^−7 cm s^−1 | 2.84 | 1070 | 1.29 | MIC ([3]; Moraxella catarrhalis, ATCC25238I, read-out: MIC): 128 µg/mL (≈ 524 µM)
6 | CC(C)=CCC12OC1C(O)c1ccccc1C2=O (stereo not drawn) [ent‐37] | 128 (≈ 524 µM) | 25.2 | 74.6 | 81.3 | 30 |  | 73.5 | 18.9 |  |  |  |  |  |  | 300 10^−7 cm s^−1 | 360 10^−7 cm s^−1 | 2.82 | 370 | 3.75 | MIC (E. coli ATCC25922 MHC; 18 h): 128 µg/mL; Caco‐2 permeability recovery +Elacridar (Caco-2 cells; listed as ent-37): 74.6%; Caco‐2 permeability recovery A2B (Caco-2 cells; listed as ent-37): 81.3%
7 | CCC/C=C/C=C/C1=C(CO)[C@@H](O)[C@H]2O[C@@]2(CC=C(C)C)C1=O [compound 3, (1R,5R,6R)‐3‐((1E,3E)‐Hepta‐1,3‐dien‐1‐yl)‐5‐hydroxy‐4‐(hydroxymethyl)‐1‐(3‐methylbut‐2‐en‐1‐yl)‐7‐oxabicyclo[4.1.0]hept‐3‐en‐2‐one] |  |  |  |  |  | 4.11 |  |  |  | > 128 | > 128 | 64 (≈ 201 µM) | > 128 | > 128 |  |  |  |  |  | 
